Laboratory results reported in the supplement of paper PMC10307832.

Columns and labels:
Assay in all cases: relative viability (nuclei count vs DMSO), 5 days (fraction); higher = more cells survive
17-AAG + Tozasertib = compound: C=CCNC1=C2C[C@@H](C)C[C@H](OC)[C@H](O)[C@@H](C)/C=C(\C)[C@H](OC(N)=O)[C@@H](OC)/C=C\C=C(/C)C(=O)NC(=CC1=O)C2=O [17-AAG] + Cc1cc(Nc2cc(N3CCN(C)CC3)nc(Sc3ccc(NC(=O)C4CC4)cc3)n2)n[nH]1 [Tozasertib] (partner 0.1 µM)
In short: (§1)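 Relative viability is defined as nuclei in treated wells over nuclei in vehicle wells. Duplicate plates were run and medians reported. Lung cancer cell lines in 1536-well plates were dosed by pin tool one day after seeding, with one drug or with a fixed anchor-drug dose plus five library-drug doses (not always all listed) in √10 steps, and nuclei were counted after 5 days.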

17-AAG + Dasatinib = compound: C=CCNC1=C2C[C@@H](C)C[C@H](OC)[C@H](O)[C@@H](C)/C=C(\C)[C@H](OC(N)=O)[C@@H](OC)/C=C\C=C(/C)C(=O)NC(=CC1=O)C2=O [17-AAG] + Cc1nc(Nc2ncc(C(=O)Nc3c(C)cccc3Cl)s2)cc(N2CCN(CCO)CC2)n1 [Dasatinib] (partner 0.075 µM)
In short: as §1

17-AAG + Alpelisib = compound: C=CCNC1=C2C[C@@H](C)C[C@H](OC)[C@H](O)[C@@H](C)/C=C(\C)[C@H](OC(N)=O)[C@@H](OC)/C=C\C=C(/C)C(=O)NC(=CC1=O)C2=O [17-AAG] + Cc1nc(NC(=O)N2CCC[C@H]2C(N)=O)sc1-c1ccnc(C(C)(C)C(F)(F)F)c1 [Alpelisib] (partner 2 µM)
In short: as §1

17-AAG + Luminespib = compound: C=CCNC1=C2C[C@@H](C)C[C@H](OC)[C@H](O)[C@@H](C)/C=C(\C)[C@H](OC(N)=O)[C@@H](OC)/C=C\C=C(/C)C(=O)NC(=CC1=O)C2=O [17-AAG] + CCNC(=O)c1noc(-c2cc(C(C)C)c(O)cc2O)c1-c1ccc(CN2CCOCC2)cc1 [Luminespib] (partner 0.01 µM)
In short: as §1

| Cell Line | relative viability (17-AAG + Tozasertib; first compound 0.00128 µM) | relative viability (17-AAG + Tozasertib; first compound 0.004048 µM) | relative viability (17-AAG + Tozasertib; first compound 0.0128 µM) | relative viability (17-AAG + Tozasertib; first compound 0.04048 µM) | relative viability (17-AAG + Tozasertib; first compound 0.128 µM) | relative viability (17-AAG + Dasatinib; first compound 0.00128 µM) | relative viability (17-AAG + Dasatinib; first compound 0.004048 µM) | relative viability (17-AAG + Dasatinib; first compound 0.0128 µM) | relative viability (17-AAG + Dasatinib; first compound 0.04048 µM) | relative viability (17-AAG + Dasatinib; first compound 0.128 µM) | relative viability (17-AAG + Alpelisib; first compound 0.00128 µM) | relative viability (17-AAG + Alpelisib; first compound 0.0128 µM) | relative viability (17-AAG + Alpelisib; first compound 0.04048 µM) | relative viability (17-AAG + Alpelisib; first compound 0.128 µM) | relative viability (17-AAG + Alpelisib; first compound 0.004048 µM) | relative viability (17-AAG + Luminespib; first compound 0.00128 µM) | relative viability (17-AAG + Luminespib; first compound 0.004048 µM) | relative viability (17-AAG + Luminespib; first compound 0.0128 µM) | relative viability (17-AAG + Luminespib; first compound 0.128 µM) | relative viability (17-AAG + Luminespib; first compound 0.04048 µM) |
| --- | --- | --- | --- | --- | --- | --- | --- | --- | --- | --- | --- | --- | --- | --- | --- | --- | --- | --- | --- | --- |
| HCC-78 | 0.443 | 0.401 | 0.418 | 0.637 | 0.223 | 0.358 | 0.508 | 0.403 | 0.359 | 0.193 | 0.418 | 0.446 | 0.326 | 0.294 |  |  |  |  |  |  |
| HCC-366 | 0.191 | 0.22 | 0.268 | 0.044 | 0.0391 | 0.726 | 0.654 | 0.0387 | 0.0326 | 0.0293 | 0.565 | 0.0236 | 0.0226 | 0.0154 | 0.333 |  |  |  |  |  |
| HCC-827 | 0.402 | 0.427 | 0.467 |  | 0.432 | 0.332 | 0.39 | 0.253 |  | 0.32 | 1.03 | 0.997 |  | 0.899 | 1.05 | 0.579 | 0.706 | 0.652 | 0.291 |  |
| HOP-62 | 0.363 | 0.466 | 0.386 | 0.212 | 0.17 | 0.685 | 0.683 | 0.485 | 0.175 | 0.1 | 0.907 | 1.1 | 0.939 | 0.38 | 1.04 | 0.928 | 0.806 | 0.919 | 0.136 | 0.36 |
| IA-LM |  |  |  |  |  |  |  |  |  |  | 0.719 | 0.657 | 0.303 | 0.105 | 0.813 |  |  |  |  |  |
| LC-2-ad | 0.437 | 0.437 | 0.429 | 0.316 | 0.226 | 0.546 | 0.418 | 0.18 | 0.198 | 0.12 | 0.955 | 0.747 | 0.167 | 0.0846 | 0.863 | 0.949 | 0.83 | 0.305 | 0.258 | 0.302 |
| LCLC-97TM1 | 0.213 | 0.268 | 0.268 | 0.251 | 0.21 | 0.796 | 0.813 | 0.777 | 0.224 | 0.159 | 0.204 | 0.235 | 0.26 | 0.161 | 0.294 | 0.826 | 0.785 | 0.707 | 0.195 | 0.58 |
| LCLC-103H | 0.555 | 0.55 | 0.458 | 0.532 | 0.643 | 0.446 | 0.522 | 0.464 | 0.456 | 0.46 | 1.05 | 0.998 | 0.996 | 1.11 | 0.974 | 1.04 | 0.891 | 0.98 | 0.798 | 0.999 |
| LK-2 | 0.161 | 0.174 | 0.153 | 0.227 | 0.172 | 0.285 | 0.396 | 0.224 | 0.157 | 0.116 | 1.13 | 1.28 | 0.217 | 0.233 | 0.998 | 0.201 | 0.162 | 0.181 | 0.177 | 0.17 |
| LOU-NH91 | 0.663 | 0.475 | 0.39 | 0.327 | 0.307 | 0.535 | 0.421 | 0.359 | 0.295 | 0.273 | 0.66 | 0.532 | 0.446 | 0.34 | 0.592 | 0.345 | 0.239 | 0.282 | 0.291 | 0.3 |
| LU99A | 0.288 | 0.345 | 0.399 | 0.276 | 0.132 | 0.508 | 0.387 | 0.283 | 0.13 | 0.0659 | 0.564 | 0.477 | 0.4 | 0.165 | 0.535 | 0.239 | 0.201 | 0.213 | 0.146 | 0.169 |
| LXF-289 | 0.204 | 0.22 | 0.203 | 0.127 | 0.0677 | 0.234 | 0.183 | 0.0975 | 0.064 | 0.0605 | 1.07 | 0.882 | 0.647 | 0.118 | 1.03 | 0.628 | 0.556 | 0.377 | 0.0993 | 0.121 |
| NCI-H522 | 0.621 | 0.532 | 0.619 | 0.558 | 0.502 | 0.822 | 0.799 | 0.77 | 0.632 | 0.443 |  |  |  |  |  | 0.902 | 1.03 | 0.948 | 0.451 | 1.02 |
| NCI-H1563 |  |  |  |  |  | 0.493 | 0.504 | 0.481 | 0.42 | 0.324 | 0.964 | 0.616 | 0.591 | 0.514 | 0.853 | 0.476 | 0.497 | 0.537 | 0.49 | 0.525 |
| NCI-H1648 | 0.433 |  | 0.426 | 0.608 | 0.327 |  |  |  |  |  |  |  |  |  |  |  |  |  |  |  |
| NCI-H1650 | 0.458 | 0.317 | 0.215 | 0.175 | 0.206 | 0.267 | 0.147 | 0.167 | 0.199 | 0.148 |  |  |  |  |  | 0.195 | 0.194 | 0.228 | 0.215 | 0.214 |
| NCI-H1703 |  |  |  |  |  |  |  |  |  |  | 0.366 | 0.141 | 0.155 | 0.134 | 0.152 |  |  |  |  |  |
| NCI-H1792 |  |  |  |  |  | 0.761 | 0.75 | 0.611 | 0.493 | 0.31 | 0.713 | 0.594 | 0.441 | 0.306 | 0.64 | 0.351 | 0.418 | 0.255 | 0.213 | 0.268 |
| NCI-H2342 | 0.442 | 0.437 | 0.518 | 0.493 | 0.306 | 0.294 | 0.394 | 0.306 | 0.293 | 0.3 |  |  |  |  |  | 0.695 | 0.689 | 0.602 | 0.38 | 0.402 |
| SW 900 | 0.684 | 0.565 | 0.262 | 0.133 | 0.113 | 0.731 | 0.314 | 0.118 | 0.0729 | 0.0968 |  |  |  |  |  | 0.183 | 0.172 | 0.19 | 0.153 | 0.153 |
